What was measured:
mGluR5 binding to Homer = assay: mGluR5 binding to GST-Homer after treating mGluR5-expressing HEK293 cells with PPIase inhibitors (pull-down, western blot); format: cell-based; conditions: for effect on mGluR5 binding to GST-Homer: HEK293 cells expressing mGluR5, 1 micromolar in medium, differing intervals
Description: HEK293 cells were transfected with pRK5-mGluR5. 1 micromolar FK506 was added to the medium for differing intervals prior to harvesting and preparation of lysates in the indicated buffer, which include inhibitors of phosphatases and proteases. Lysates were mixed with glutathione agarose beads loaded with GST-Homer 3 EVH1 domain for 1 hr at 4 C. mGluR5 that bound to Homer was then analyzed by western blot. Lysates were also assayed to confirm expression of mGluR5 (lower panel). Note the increase in mGluR5 that binds to Homer from lysates of cells treated for 3 hrs or longer with FK506.
If PPIases regulate the conformational state of the mGluR5, it was anticipated that PPIase inhibitors would alter the ability of the mGluR5 to bind to Homer. To examine this hypothesis, Homer was expressed as a bacterial fusion protein with glutathione S-transferase (GST) and loaded the protein on a glutathione agarose bead. These binding assays are identical to those used previously to document the ligand consensus sequence in mGluR5 (Tu et al., 1998), and for analysis of the binding surfaces of Homer (Beneken et al., 2000).
Cells were treated for different times with PPIase inhibitors and then harvested in buffer containing protease and phosphatase inhibitors and 1% Triton detergent. Soluble lysates were then mixed with beads loaded with GST-Homer incubated for 1 hr at 4° C., washed several times and proteins eluted with SDS loading buffer. […] Increased binding was detected by 3 hrs and remained elevated for 24 hrs.

[1] = target: T1, TrpC1 binding to GST-FKBP52 (Homo sapiens, UniProt Q02790); assay: TrpC1 binding to GST-FKBP52 after pretreating cell lysates with PPIase inhibitors
T1 construct: expressed in transfected cells; host or cells: HEK293 cell lysate (TrpC1)
T1 sequence (Q02790 1-459): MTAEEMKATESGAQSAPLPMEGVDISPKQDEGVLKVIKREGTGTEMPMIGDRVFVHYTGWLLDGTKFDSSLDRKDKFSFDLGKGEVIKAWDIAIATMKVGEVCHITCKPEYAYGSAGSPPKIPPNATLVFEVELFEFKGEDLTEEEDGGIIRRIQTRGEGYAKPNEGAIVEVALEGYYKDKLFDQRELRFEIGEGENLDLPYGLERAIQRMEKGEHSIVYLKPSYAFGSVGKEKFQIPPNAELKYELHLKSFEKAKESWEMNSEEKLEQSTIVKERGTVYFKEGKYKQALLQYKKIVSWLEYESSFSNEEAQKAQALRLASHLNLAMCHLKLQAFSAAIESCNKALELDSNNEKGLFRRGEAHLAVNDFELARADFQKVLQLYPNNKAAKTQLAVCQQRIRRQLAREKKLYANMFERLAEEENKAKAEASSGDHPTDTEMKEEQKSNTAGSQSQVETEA
From the text: To further test this hypothesis, the binding of TrpC1 to GST-FKBP12 or GST-FKBP52 was examined. Also, the effect of pretreating cell lysates with FK506, GPI-1046, cyclosporin A or the control agent aniracetam (structurally similar to GPI-1946) was examined. The notion being that dissociation of endogenous FKBP would increase the availability of TrpC1 to bind GST-FKBP in vitro. The FK506 might also be expected to bind to GST-FKBP but because this protein is highly concentrated on the bead and is in vast excess to cellular FKBP, the net consequence of drug treatment would be increased binding of TrpC1 to GST-FKBP. In these assays, TrpC1 bound to FKBP52 (FIG. 15), but not to FKBP12. Binding of TrpC1 to GST-FKBP52 was increased by treatment with both FK506 and GPI1046. The effect of these agents was particularly robust for the dimeric TrpC1 species and was detected with 100 nM FK506 or GPI1046. These studies confirmed that TrpC1 is bound by Homer and FKBP52, and that treatment of cell lysates or cells with drugs that inhibit rotamase activity and dissociate rotamases from their target proteins, result in enhanced binding of TrpC1 to both Homer (FIG. 14) and FKBP52 (FIG. 15).

TrpC1 binding to Homer = assay: TrpC1 binding to GSTHomer after treating lysates of TrpC1-expressing HEK293 cells; conditions: for effect on TrpC1 binding to Homer: lysates treated with indicated concentrations
Description: TrpC1 was transiently expressed in HEK293 cells and lysates were treated with the indicated concentrations of FK506, GPI1046, cyclosporin A or aniracetam (negative control) and assayed for TrpC1 binding to GSTHomer. TrpC1 migrates as both a monomer and dimer. Note that FK506, GPI1046 and cyclosporin A (but not aniracetam) treatment results in increased TrpC1 binding to Homer.

[2] = tested on: TrpC1 binding to Homer1EVH1; assay: TrpC1 binding to GST-Homer1 EVH1 after treating TrpC1-expressing HEK293 cells with FK506; format: cell-based; conditions: 150 nM
Description: HEK293 cells that transiently express TrpC1 were treated with FK506 for indicted time prior to preparation of lysates and binding to GST-Homer. Note that FK506 treatment increases TrpC1 binding to Homer.
An observation from the Homer-TrpC1 binding data remained enigmatic. […] Additionally, certain point mutants of the C-terminal Homer ligand increase binding to Homer. […] The possibility that an FKBP homologue might bind mammalian TrpC1 and impact the binding of Homer was explored. As a first test of this hypothesis, the consequence of treating cells expressing TrpC1 with FK506, and then testing TrpC1 binding to GST-Homer was examined. HEK293 cells were transfected with wt TrpC1 and treated with 150 nM FK506 for times ranging from 15 min to 24 hrs. Cells lysates were prepared in 1% Triton and mixed with GST-Homer1 EVH1 and bound TrpC1 assayed by western blot. Lysates were also assayed to compare expression in each of the samples. […] This effect was detected as early as 30 min after addition of FK506 and persisted for 24 hrs. A peak of increased binding appeared at ˜6hrs. […] It was concluded that FK506 increases the binding of TrpC1 to Homer at a dose that is known to the relevant for FKBP.

[3] = 1 micromolar, HEK293 cells expressing mGluR5

concentration at which increased TrpC1 binding to GST-FKBP52 was detected ([1]; dimeric TrpC1 species, pretreated lysates) [nM] | effect on binding of TrpC1 to GST-FKBP52 ([1]; pretreated cell lysates) | Structure (SMILES) | mGluR5 binding after 12 or 24 hrs of treatment (mGluR5 binding to Homer; 1 micromolar, 12 or 24 hrs) | effect on expression of mGluR5 in lysates (mGluR5 binding to Homer; 1 micromolar, HEK293 cells) | treatment time of peak mGluR5 binding (mGluR5 binding to Homer; [3]) [h] | treatment time within which mGluR5 binding increased (mGluR5 binding to Homer; [3]) [min] | effect on mGluR5 binding to GST-Homer (mGluR5 binding to Homer) | effect on mGluR5 binding to GST-Homer (mGluR5 binding to Homer; listed as GPI 1046) | effect on TrpC1 binding to Homer at 10 nM (TrpC1 binding to Homer; 10 nM) | effect on TrpC1 binding to Homer with higher doses or longer times (TrpC1 binding to Homer; doses higher than 10 nM or longer times) | effect on TrpC1 binding to Homer (TrpC1 binding to Homer) | effect on TrpC1 binding to Homer (TrpC1 binding to Homer; listed as GPI 1046) | time for which mGluR5 binding remained elevated (mGluR5 binding to Homer; [3]) [h] | earliest time at which increased TrpC1 binding was detected [2] [min] | time for which increased TrpC1 binding persisted [2] [h] | time of peak of increased TrpC1 binding [2] [h]
100 | increased | CCC(C)(C)C(=O)C(=O)N1CCC[C@H]1C(=O)OCCCc1cccnc1 [GPI1046] | decreased | did not significantly alter | ≤ 3 | ≤ 30 | time-dependent increase | effective in increasing | potent enhancement | decreases | increased | enhanced |  |  |  | 
 |  | C=CC[C@@H]1/C=C(\C)C[C@H](C)C[C@H](OC)[C@H]2O[C@@](O)(C(=O)C(=O)N3CCCC[C@H]3C(=O)O[C@H](/C(C)=C/[C@@H]3CC[C@@H](O)[C@H](OC)C3)[C@H](C)[C@@H](O)CC1=O)[C@H](C)C[C@@H]2OC [FK506] |  |  |  |  |  |  |  |  |  |  | 24 | 30 | 24 | ~6
 |  | COc1ccc(C(=O)N2CCCC2=O)cc1 [aniracetam] |  |  |  |  |  |  |  |  | not |  |  |  |  | 

From patent publication US7442513B2, “Method of screening for agents that modulate a homer signaling pathway” (The Johns Hopkins University, priority 2003, dated 2008)
